According to ChEMBL document CHEMBL3886958, “Substituted B-amino acid derivatives as CXCR3 receptor antagonists” (2016):

Molecular target: T1, C-X-C chemokine receptor type 3 (Homo sapiens, UniProt P49682)
T1 sequence (P49682 whole entry): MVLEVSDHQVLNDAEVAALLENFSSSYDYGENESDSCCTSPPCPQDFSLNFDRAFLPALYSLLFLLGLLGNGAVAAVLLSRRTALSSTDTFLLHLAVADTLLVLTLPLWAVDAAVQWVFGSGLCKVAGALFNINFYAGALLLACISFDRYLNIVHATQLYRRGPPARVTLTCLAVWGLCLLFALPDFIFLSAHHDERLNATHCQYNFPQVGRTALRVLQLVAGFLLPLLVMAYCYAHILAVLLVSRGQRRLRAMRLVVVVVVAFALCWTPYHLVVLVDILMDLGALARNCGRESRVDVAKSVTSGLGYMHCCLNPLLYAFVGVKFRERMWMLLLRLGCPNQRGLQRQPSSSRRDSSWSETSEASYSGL

Compound | IC50 [µM]
COc1cc(CN(CC2CCCC2)C(C(=O)O)c2ccc(Cl)cc2)ccc1OCCN1C(=O)CCC1=O (centres undefined) | 0.467
CCN(Cc1ccc(OCCN2C(=O)CCC2=O)c(OC)c1)C(c1ccc(Cl)cc1)C(C)(C)C(=O)O (centres undefined) | 0.295
CCOC(=O)CC(c1ccc2c(c1)CCO2)N(Cc1ccc(OCCN2C(=O)CCC2=O)c(OC)c1)CC(C)C (centres undefined) | 0.686
CCCN(Cc1ccc(OCCN2C(=O)CCC2=O)c(OC)c1)[C@H](C(=O)O)c1ccc(Cl)c(Cl)c1 | 0.495
O=C(O)CC(c1ccc(Cl)c(Cl)c1)N(Cc1ccc(OCCN2C(=O)CCC2=O)c(F)c1)CC1CCCCC1 (centres undefined) | 0.435

The next compounds have a lower IC50 than those just listed; values first:

IC50 [µM] | Compound
0.081 | CCCN(Cc1ccc(OCCN2C(=O)CCC2=O)c(CC)c1)C(CC(=O)O)c1ccc(Cl)c(Cl)c1 (centres undefined)
0.179 | COc1cc(CN(CC2CCCC2)C(CC(=O)O)c2ccc(Cl)cc2)ccc1CCCN1C(=O)CCC1=O (centres undefined)
0.187 | COc1cc(CN(CC2CCCCC2)[C@@H](CC(=O)O)c2ccc(Cl)c(Cl)c2)ccc1OCCN1C(=O)CN(C)C1=O
0.04 | COc1cc(CN(CC2CC2)C(CC(=O)O)c2ccc(Cl)c(F)c2)ccc1SCCN1C(=O)CCC1=O (centres undefined)
